Data taken from US10683293B2, “Optionally fused heterocyclyl-substituted derivatives of pyrimidine useful for the treatment of inflammatory, metabolic, oncologic and autoimmune diseases” (NUEVOLUTION A/S, priority 2014, dated 2020).

Columns and labels:
[1] = molecular target: T1, human RORγt (Ligand Binding Domain) (Homo sapiens, UniProt P51449); assay: Fluorescence Polarization (FP) Assay; settings: 100 nM human RORγt LBD, 25 nM TAMRA probe, values are activity range bounds
T1 construct: purchased Crelux (Planegg, Germany) batch no PC5032-1
T1 sequence (P51449 269-508 limits assumed): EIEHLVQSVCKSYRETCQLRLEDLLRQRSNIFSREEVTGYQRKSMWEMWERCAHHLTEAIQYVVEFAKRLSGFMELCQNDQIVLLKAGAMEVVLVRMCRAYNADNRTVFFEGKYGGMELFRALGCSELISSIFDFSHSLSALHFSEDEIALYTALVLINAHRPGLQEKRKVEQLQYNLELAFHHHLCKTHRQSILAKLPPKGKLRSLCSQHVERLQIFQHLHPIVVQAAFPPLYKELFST
Procedure, shortened: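 In vitro fluorescence polarization binding assay on the RORγt ligand-binding pocket. A TAMRA-labelled RORγt ligand probe (MW 910 g/mol) was used, with DMSO as negative control.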

[2] = molecular target: T2, ligand binding domain of human RORγ (Homo sapiens, UniProt P51449); assay: RORγ Reporter Assay (Gal4); format: cell-based; settings: for inhibition at 1 µM: HEK-293T, 1 μM test compound, HEK293t RORγ reporter cells, 24 hour, read-out: Gal4 activity range @ 1 μM (% inhibition); for Gal4 activity range @ 0.1 μM (% inhibition): RORγ Reporter Assay (Gal4), HEK293t reporter cells, compound at 0.1 μM, values are activity range bounds
T2 construct: host or cells: HEK293t
T2 sequence (P51449 269-508 limits assumed): T1 sequence (P51449 269-508 limits assumed)
Experimental: The activity of the compounds was evaluated using a Fluorescence Polarization (FP) Assay and, RORγ Reporter assay (also referred to as Gal4 assay). The FP assay is an in vitro assay monitoring binding within the ligand binding pocket. The RORγ and the Th17 assays (another suitable assay) are both cell-based assays monitoring functional activity of the compound assayed.
RORγ Reporter Assay (Gal4)
Cell-based RORγ functional assays were performed using a commercially available assay product (INDIGO Biosciences, State College, Pa., USA; product # IB04001). The RORγ reporter cells are HEK293t cells transfected with one vector that provides high level constitutive expression of a hybrid protein comprised of the yeast Gal4-DNA binding domain fused to the ligand binding domain of human RORγ, and a second vector comprising the firefly luciferase cDNA functionally linked to the upstream activation sequence (UAS) of yeast Gal4. A suspension of RORγ Reporter Cells was prepared using the protocol and culture medium provided in the kit product, and 100 μl of the Reporter Cell suspension was then dispensed into wells of a white, collagen-treated, 96-well assay plate. Concentrated stocks of test compounds were prepared in DMSO, then further diluted using media provided in the kit to generate ‘2×-concentration’ treatment media. 100 μl of medium for each respective treatment concentration dispensed into triplicate assay wells, thereby combining with the reporter cells. All media formulations contained 10% charcoal stripped Fetal Bovine Serum, but are otherwise proprietary to INDIGO Biosciences. Final treatment concentrations for each test compound were 1,000 nM and 100 nM, each with 0.1% residual DMSO. Separate control treatments were media supplemented with vehicle only (0.1% DMSO) to determine the constitutive level of RORγ activity in the reporter cells, and the reference inverse-agonist ursolic acid (f.c. 6,000 nM to 8.2 nM in 3-fold decrements) to establish a positive control inverse-agonist dose response. Assay plates were placed in a 37° C., 5% CO2, 85% humidity incubator for 24 hour. Treatment media were then discarded, 100 μl of luciferase detection reagent was added to each well, and relative light units (RLUs) were quantified from each assay well using a plate reading luminometer. Values of average RLU+/−standard deviation were computed for all treatment sets, followed by the calculations of fold-reduction: [Average RLUVehicle/Average RLUTest Cmpd]. Percent-reduction of RORγ activity in response to respective test compound treatments was calculated: [100*(1−[Ave RLUTest Cmpd/Ave RLUVehicle)] where the theoretical minimum reduction (0% reduction) derives from Vehicle treatment only, no treatment compound. In some aspects it may be of interest to provide compounds with selective modulation of RORγ for example compounds that are selective to RORγ over RORα, compounds that are selective for RORγ versus RORPβ, and compounds that are selective for RORγ versus BOTH RORα and RORPβ. It may also be of interest to provide compounds that are selective for RORγ versus further nuclear hormone receptors such as CAR1, FXR, GR, LXRα, LXRβ, PPARα, PXR, RARα, RXRα, TRα, VDR. It is apparent to those skilled in the art that these nuclear hormone receptors are merely examples, and that selectivity against other nuclear receptors may also be of interest. It may for example be of interest to provide compounds that modulate RORγ and one or more further nuclear hormone receptors, as well as compounds that modulate both RORγ and RORα, or RORγ and RORβ. It may also be of interest to provide compounds that modulate RORγ and BOTH RORα and RORP, as well as compounds that modulate both RORγ and one or more further nuclear hormone receptors such as CAR1, FXR, GR, LXRα, LXRβ, PPARα, PXR, RARα, RXRα, TRα, VDR. It is apparent to those skilled in the art that these nuclear hormone receptors are merely examples, and that modulation of even other nuclear receptors may also be of interest. […]

Row | SMILES | IC50 [1] | inhibition at 1 µM [2] | Gal4 activity range @ 0.1 μM (% inhibition) [2]
1 | Cc1ccc(CNc2ncnc(N(Cc3ccc(C(F)(F)F)cc3)C3CC3)c2F)cn1 [Example A1, N4-cyclopropyl-5-fluoro-N6-[(6-methyl-3-pyridyl)methyl]-N4-[[4-(trifluoromethyl)phenyl]methyl] pyrimidine-4,6-diamine] | < 1 µM | > 80% | >20 % inhibition
2 | NC(=O)Cc1ccc(CNc2ncnc(N(Cc3ccc(C(F)(F)F)cc3)C3CC3)c2F)cc1 [Example A2, 2-[4-[[[6-[cyclopropyl-[[4-(trifluoromethyl)phenyl]methyl]amino]-5-fluoro-pyrimidin-4-yl]amino]methyl]phenyl]acetamide] | < 0.5 µM | > 80% | >80 % inhibition
3 | CC(c1ccc(C(F)(F)F)cc1)N(c1ncnc(NCc2ccc(CC(N)=O)cc2)c1F)C1CC1 (stereo not drawn) [Example A3, 2-[4-[[[6-[cyclopropyl-[1-[4-(trifluoromethyl)phenyl]ethyl]amino]-5-fluoro-pyrimidin-4-yl]amino]methyl]phenyl]acetamide] | < 0.5 µM | > 80% | >50 % inhibition
4 | NC(=O)Cc1ccc(CNc2ncnc(N(Cc3ccc(C(F)(F)F)cc3)C3CCOC3)c2F)cc1 (stereo not drawn) [Example A4, 2-[4-[[[5-fluoro-6-[tetrahydrofuran-3-yl-[[4-(trifluoromethyl)phenyl]methyl]amino]pyrimidin-4-yl]amino]methyl]phenyl]acetamide] | < 2 µM | > 50% | >0 % inhibition
5 | OC1(CNc2ncnc(N(Cc3ccc(C(F)(F)F)cc3)C3CC3)c2F)CCOC1 (stereo not drawn) [Example A5, 3-[[[6-[cyclopropyl-[[4-(trifluoromethyl)phenyl]methyl]amino]-5-fluoro-pyrimidin-4-yl]amino]methyl]tetrahydrofuran-3-ol] | < 1 µM | > 80% | >20 % inhibition
6 | NC(=O)Cc1ccc(CNc2ncnc(N(Cc3ccc(OC(F)(F)F)cc3)C3CC3)c2F)cc1 [Example A6, 2-[4-[[[6-[cyclopropyl-[[4-(trifluoromethoxy)phenyl]methyl]amino]-5-fluoro-pyrimidin-4-yl]amino]methyl]phenyl]acetamide] | < 0.5 µM | > 80% | >80 % inhibition
7 | O=S1(=O)CCC(O)(CNc2ncnc(N(Cc3ccc(C(F)(F)F)cc3)C3CC3)c2F)CC1 [Example A8, 4-[[[6-[cyclopropyl-[[4-(trifluoromethyl)phenyl]methyl]amino]-5-fluoro-pyrimidin-4-yl]amino]methyl]-1,1-dioxo-thian-4-ol] | < 0.5 µM | > 80% | >50 % inhibition
8 | O=S(=O)(NC1CC1)c1ccc(CNc2ncnc(N(Cc3ccc(C(F)(F)F)cc3)C3CC3)c2F)cc1 [Example A9, N-cyclopropyl-4-[[[6-[cyclopropyl-[[4-(trifluoromethyl)phenyl]methyl]amino]-5-fluoro-pyrimidin-4-yl]amino]methyl]benzenesulfonamide] | < 0.5 µM | > 80% | >20 % inhibition
9 | CC(=O)N1CCC(CNc2ncnc(N(Cc3ccc(C(F)(F)F)cc3)C3CC3)c2F)CC1 [Example A11, 1-[4-[[[6-[cyclopropyl-[[4-(trifluoromethyl)phenyl]methyl]amino]-5-fluoro-pyrimidin-4-yl]amino]methyl]-1-piperidyl]ethanone] | < 0.5 µM | > 80% | >50 % inhibition
10 | Fc1c(NCC2CCOCC2)ncnc1N(Cc1ccc(C(F)(F)F)cc1)C1CC1 [Example A12, N4-cyclopropyl-5-fluoro-N6-(tetrahydropyran-4-ylmethyl)-N4-[[4-(trifluoromethyl)phenyl]methyl] pyrimidine-4,6-diamine] | < 1 µM | > 80% | >20 % inhibition
11 | NC(=O)Cc1ccc(CNc2ncnc(N(C3CC3)C(c3ccc(C(F)(F)F)cc3)C3CC3)c2F)cc1 (stereo not drawn) [Example A13, 2-[4-[[[6-[cyclopropyl-[cyclopropyl-[4-(trifluoromethyl)phenyl]methyl]amino]-5-fluoro-pyrimidin-4-yl]amino]methyl]phenyl]acetamide] | < 0.5 µM | > 80% | >20 % inhibition
12 | N#CCc1ccc(CNc2ncnc(N(Cc3ccc(C(F)(F)F)cc3)C3CC3)c2F)cc1 [Example A14, 2-[4-[[[6-[cyclopropyl-[[4-(trifluoromethyl)phenyl]methyl]amino]-5-fluoro-pyrimidin-4-yl]amino]methyl]phenyl]acetonitrile] | < 0.5 µM | > 80% | >50 % inhibition
13 | NC(=O)Cc1ccc(CNc2ncnc(N(Cc3ccc(C(F)(F)F)cc3)C3CCC3)c2F)cc1 [Example A15, 2-[4-[[[6-[cyclobutyl-[[4-(trifluoromethyl)phenyl]methyl]amino]-5-fluoro-pyrimidin-4-yl]amino]methyl]phenyl]acetamide] | < 0.5 µM | > 80% | >20 % inhibition
14 | COC(=O)CC(c1ccc(C(F)(F)F)cc1)N(c1ncnc(NCc2ccc(CC(N)=O)cc2)c1F)C1CC1 (stereo not drawn) [Example A16, methyl 3-[[6-[[4-(2-amino-2-oxo-ethyl)phenyl]methylamino]-5-fluoro-pyrimidin-4-yl]-cyclopropyl-amino]-3-[4-(trifluoromethyl)phenyl]propanoate] | < 0.5 µM | > 20% | >0 % inhibition
15 | O=C(O)CC1(Nc2ncnc(N(Cc3ccc(C(F)(F)F)cc3)C3CC3)c2F)CCOCC1 [Example A183, 2-[4-[[6-[cyclopropyl-[[4-(trifluoromethyl)phenyl]methyl]amino]-5-fluoro-pyrimidin-4-yl]amino]tetrahydropyran-4-yl]acetic acid] | < 2 µM |  | 
16 | O=C(O)C(CNc1ncnc(N(Cc2ccc(C(F)(F)F)cc2)C2CC2)c1F)C1CCOCC1 (stereo not drawn) [Example A184, 3-[[6-[cyclopropyl-[[4-(trifluoromethyl)phenyl]methyl]amino]-5-fluoro-pyrimidin-4-yl]amino]-2-tetrahydropyran-4-yl-propanoic acid] | < 10 µM |  | 
17 | O=C(O)C(CNc1ncnc(N(Cc2ccc(C(F)(F)F)cc2)C2CC2)c1F)CC1CCOCC1 (stereo not drawn) [Example A185, 2-[[[6-[cyclopropyl-[[4-(trifluoromethyl)phenyl]methyl]amino]-5-fluoro-pyrimidin-4-yl]amino]methyl]-3-tetrahydropyran-4-yl-propanoic acid] | < 10 µM |  | 
